Assay [1] relates to IL-4 stimulated CD23 upregulation in human Ramos B cells (JAK-1/JAK-3, Stat-6). The assay is described as follows: Assay for Ramos B-Cell Line Stimulated with IL-4 (CD23 upregulation, FACS). The assay is classed as cell-based. As to conditions: Table III Example 3. The procedure, abridged: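 Log-phase Ramos B cells (5×10^4 per point, RPMI with 5% serum) pre-incubated with compound or DMSO 1 h at 37° C, then stimulated with IL-4 at 50 units/mL final for 20-24 h. CD23 upregulation measured by staining and flow cytometry.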

The test system of assay [2] is primary human T-cells (IL-2 induced proliferation, JAK-1/JAK-3, Stat-5). The assay is described as follows: Primary Human T-Cell Proliferation Assay Stimulated with IL-2 (CellTiter-Glo). The assay is classed as cell-based. The note with it: Table III Example 4. A digest of the protocol:
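Pre-activated peripheral-blood T-cells (TCR/CD28 stimulated, IL-2-maintained) were IL-2-depleted, then plated in Yssel's medium with 80 U/mL IL-2 in the cell suspension and compound in duplicate. Proliferation ran 72 h at 37 °C; viable cells quantified by CellTiter-Glo ATP luminescence, with IL-2-omitted wells as unstimulated control.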
In general terms: In ATP-based viability assays light output follows the ATP content of the culture.

The term IC50 denotes the concentration that gives 50% inhibition. High values mean a need for much substance, low ones inhibition by little substance.

For the compound `Cc1ccc(Nc2ncc(F)c(Nc3ccc(CNS(=O)(=O)C4CCCCC4)cc3)n2)cc1S(N)(=O)=O` [Compound I-73, N2-(3-aminosulfonyl-4-methyl)phenyl-N4-(4-cyclohexylsulfonylaminomethyl)phenyl-5-fluoro-2,4-pyrimidinediamine], the IC50 in assay [1] was found to be 89.9 nM; in assay [2] it was 71 nM.

With `CCCN(Cc1ccc(Nc2nc(Nc3cccc(S(N)(=O)=O)c3)ncc2C)cc1)S(=O)(=O)C1CC1` [Compound I-80, N2-(3-aminosulfonyl)phenyl-N4-[4-(N-cyclopropylsulfonyl-N-propylamino)methyl]phenyl-5-methyl-2,4-pyrimidinediamine], the figures for the IC50 in assay [1] and in assay [2] were 37.1 nM and 46.3 nM, respectively.

Regarding `Cc1cnc(Nc2cc(S(N)(=O)=O)cc(S(N)(=O)=O)c2)nc1Nc1ccc(CNS(=O)(=O)C2CC2)cc1` [Compound I-84, N4-(4-cyclopropylsulfonylaminomethyl)phenyl-N2-(3,5-diaminosulfonyl)phenyl-5-methyl-2,4-pyrimidinediamine], the IC50 in assay [1] stood at 355 nM; in assay [2], 237 nM.

Consider `Cc1cnc(Nc2cccc(S(N)(=O)=O)c2)nc1Nc1ccc(CNS(=O)(=O)CC(F)(F)F)cc1` [Compound I-97, N2-(3-aminosulfonyl)phenyl-5-methyl-N4-(4-trifluoroethylsulfonylaminomethyl)phenyl-2,4-pyrimidinediamine], for which the IC50 in assay [1] is 34.7 nM; in assay [2], 48.8 nM.

On to `Cc1ccc(Nc2ncc(Cl)c(Nc3ccc(CNS(=O)(=O)C4CC4)cc3)n2)cc1S(N)(=O)=O` [Compound I-113, N2-(3-aminosulfonyl-4-methyl)phenyl-5-chloro-N4-(4-cyclopropylsulfonylaminomethyl)phenyl-2,4-pyrimidinediamine], for which the IC50 stood at 18.6 nM in assay [1] and 17 nM in assay [2].

With `NS(=O)(=O)c1cccc(Nc2ncc(Cl)c(Nc3ccc(CNS(=O)(=O)C4CC4)cc3)n2)c1` [Compound I-114, N2-(3-aminosulfonyl)phenyl-5-chloro-N4-(4-cyclopropylsulfonylaminomethyl)phenyl-2,4-pyrimidinediamine], the figures for the IC50 in assay [1] and in assay [2] were 20.6 nM and 9.2 nM, respectively.

In the case of `NS(=O)(=O)c1ccc(Nc2ncc(Cl)c(Nc3ccc(CNS(=O)(=O)C4CC4)cc3)n2)cc1` [Compound I-115, N2-(4-aminosulfonyl)phenyl-5-chloro-N4-(4-cyclopropylsulfonylaminomethyl)phenyl-2,4-pyrimidinediamine], the IC50 in assay [1] was 23.3 nM; in assay [2], 19.2 nM.

For `CCC(=O)N(Cc1cccc(Nc2nc(Nc3cccc(S(N)(=O)=O)c3)ncc2C)c1)S(=O)(=O)C1CC1` [Compound I-116, N2-(3-aminosulfonyl)phenyl-N4-[3-(N-cyclopropylsulfonyl-N-propionyl)aminomethyl]phenyl-5-methyl-2,4-pyrimidinediamine], the IC50 was 36.7 nM in assay [1] and 29.9 nM in assay [2].

As to `Cc1ccc(Nc2ncc(C)c(Nc3ccc(CNS(=O)(=O)C(C)C)cc3)n2)cc1S(N)(=O)=O` [Compound I-117, N2-(3-aminosulfonyl-4-methyl)phenyl-N4-(4-isopropylsulfonylaminomethyl)phenyl-5-methyl-2,4-pyrimidinediamine], the IC50 is 38.8 nM in assay [1] and 17.9 nM in assay [2].

In the case of `Cc1cnc(Nc2cccc(S(N)(=O)=O)c2)nc1Nc1ccc(CNS(=O)(=O)C(C)C)cc1` [Compound I-118, N2-(3-aminosulfonyl)phenyl-N4-(4-isopropylsulfonylaminomethyl)phenyl-5-methyl-2,4-pyrimidinediamine], the IC50 is 39.8 nM in assay [1] and 15.8 nM in assay [2].

Take `Cc1cnc(Nc2cccc(S(N)(=O)=O)c2)nc1Nc1ccc(CNS(=O)(=O)C2CC2)c(Cl)c1` [Compound I-119, N2-(3-aminosulfonyl)phenyl-N4-(3-chloro-4-cyclopropylsulfonylaminomethyl)phenyl-5-methyl-2,4-pyrimidinediamine]: the IC50 in assay [1] is 53.5 nM; in assay [2], 95.4 nM.

`Cc1cnc(Nc2cccc(S(N)(=O)=O)c2)nc1Nc1cccc(CN(C)S(=O)(=O)C2CC2)c1` [Compound I-120, N2-(3-aminosulfonyl)phenyl-N4-[3-(N-cyclopropylsulfonyl-N-methyl)aminomethyl]phenyl-5-methyl-2,4-pyrimidinediamine]: the IC50 stood at 67.1 nM in assay [1] and 47.3 nM in assay [2].

For the compound `Cc1cnc(Nc2cccc(S(N)(=O)=O)c2)nc1Nc1ccc(CN(C)S(=O)(=O)C2CC2)cc1` [Compound I-121, N2-(3-aminosulfonyl)phenyl-N4-[4-(N-cyclopropylsulfonyl-N-methyl)aminomethyl]phenyl-5-methyl-2,4-pyrimidinediamine], the IC50 in assay [1] is 73.6 nM; in assay [2], 46.5 nM.

`Cc1cnc(Nc2ccc(S(N)(=O)=O)cc2)nc1Nc1ccc(CNS(=O)(=O)C(C)C)cc1` [Compound I-123, N2-(4-aminosulfonyl)phenyl-N4-(4-isopropylsulfonylaminomethyl)phenyl-5-methyl-2,4-pyrimidinediamine]: the IC50 in assay [1] amounted to 83.6 nM; in assay [2], 42.9 nM.

`Cc1cnc(Nc2ccc(S(N)(=O)=O)cc2)nc1Nc1cccc(CN(C)S(=O)(=O)C2CC2)c1` [Compound I-124, N2-(4-aminosulfonyl)phenyl-N4-[3-(N-cyclopropylsulfonyl-N-methyl)aminomethyl]phenyl-5-methyl-2,4-pyrimidinediamine]: the IC50 is 89.8 nM in assay [1] and 132 nM in assay [2].

For `Cc1ccc(Nc2ncc(C)c(Nc3ccc(CNS(=O)(=O)C4CC4)c(Cl)c3)n2)cc1S(N)(=O)=O` [Compound I-125, N2-(3-aminosulfonyl-4-methyl)phenyl-N4-(3-chloro-4-cyclopropylsulfonylaminomethyl)phenyl-5-methyl-2,4-pyrimidinediamine], the results for the concentration for half-maximal inhibition (IC50) in assay [1] and in assay [2] were 94.9 nM and 138 nM, respectively.

For the compound `Cc1ccc(Nc2ncc(C)c(Nc3ccc(CN(C)S(=O)(=O)C4CC4)cc3)n2)cc1S(N)(=O)=O` [Compound I-126, N2-(3-aminosulfonyl-4-methyl)phenyl-N4-[4-(N-cyclopropylsulfonyl-N-methyl)aminomethyl]phenyl-5-methyl-2,4-pyrimidinediamine], the IC50 came out at 104 nM in assay [1] and 74.2 nM in assay [2].

For the compound `Cc1cnc(Nc2cccc(S(=O)(=O)NCc3ccccc3)c2)nc1Nc1ccc(CNS(=O)(=O)C2CC2)cc1` [Compound I-154, N2-(3-benzylaminosulfonyl)phenyl-N4-(4-cyclopropylsulfonylaminomethyl)phenyl-5-methyl-2,4-pyrimidinediamine], the half-inhibitory concentration (IC50) is 84.6 nM in assay [1] and 61.9 nM in assay [2].

For `CNS(=O)(=O)c1cccc(Nc2ncc(C)c(Nc3ccc(CNS(=O)(=O)C4CC4)cc3)n2)c1` [Compound I-161, N4-(4-cyclopropylsulfonylaminomethyl)phenyl-5-methyl-N2-(3-methylaminosulfonyl)phenyl-2,4-pyrimidinediamine], the results for the IC50 in assay [1] and in assay [2] were 16.7 nM and 11.2 nM, respectively.

For `CNS(=O)(=O)c1cccc(Nc2ncc(C)c(Nc3cccc(CNS(=O)(=O)C4CC4)c3)n2)c1` [Compound I-162, N4-(3-cyclopropylsulfonylaminomethyl)phenyl-5-methyl-N2-(3-methylaminosulfonyl)phenyl-2,4-pyrimidinediamine], the IC50 in assay [1] amounted to 57.9 nM; in assay [2] it was 46.3 nM.

Turning to `C#CCNS(=O)(=O)c1ccc(Nc2ncc(C)c(Nc3ccc(CNS(=O)(=O)C4CC4)cc3)n2)cc1` [Compound I-164, N4-(4-cyclopropylsulfonylaminomethyl)phenyl-5-methyl-N2-(4-propargylaminosulfonyl)phenyl-2,4-pyrimidinediamine], the half-maximal inhibitory concentration (IC50) stood at 61.3 nM in assay [1] and 32.8 nM in assay [2].

Take `C#CCNS(=O)(=O)c1cccc(Nc2ncc(C)c(Nc3ccc(CNS(=O)(=O)C4CC4)cc3)n2)c1` [Compound I-165, N4-(4-cyclopropylsulfonylaminomethyl)phenyl-5-methyl-N2-(3-propargylaminosulfonyl)phenyl-2,4-pyrimidinediamine]: the half-inhibitory concentration (IC50) in assay [1] turned out to be 34.8 nM; in assay [2], 19.9 nM.

Turning to `Cc1cnc(Nc2cccc(S(=O)(=O)NC(C)C)c2)nc1Nc1ccc(CNS(=O)(=O)C2CC2)cc1` [Compound I-173, N4-(4-cyclopropylsulfonylaminomethyl)phenyl-N2-(3-isopropylaminosulfonyl)phenyl-5-methyl-2,4-pyrimidinediamine], the IC50 turned out to be 34.8 nM in assay [1] and 42.4 nM in assay [2].

On to `CCNS(=O)(=O)c1ccc(Nc2ncc(C)c(Nc3ccc(CNS(=O)(=O)C4CC4)cc3)n2)cc1` [Compound I-175, N4-(4-cyclopropylsulfonylaminomethyl)phenyl-N2-(4-ethylaminosulfonyl)phenyl-5-methyl-2,4-pyrimidinediamine], for which the results for the IC50 in assay [1] and in assay [2] were 46.1 nM and 102 nM, respectively.

`CCNS(=O)(=O)c1cccc(Nc2ncc(C)c(Nc3ccc(CNS(=O)(=O)C4CC4)cc3)n2)c1` [Compound I-176, N4-(4-cyclopropylsulfonylaminomethyl)phenyl-N2-(3-ethylaminosulfonyl)phenyl-5-methyl-2,4-pyrimidinediamine]: the IC50 in assay [1] turned out to be 7.98 nM; in assay [2], 64.5 nM.

As for `CCCNS(=O)(=O)c1cccc(Nc2ncc(C)c(Nc3ccc(CNS(=O)(=O)C4CC4)cc3)n2)c1` [Compound I-178, N4-(4-cyclopropylsulfonylaminomethyl)phenyl-5-methyl-N2-(3-propylaminosulfonyl)phenyl-2,4-pyrimidinediamine], the results for the IC50 in assay [1] and in assay [2] were 23 nM and 122 nM, respectively.

Source of the values: US9481654B2, “Compositions and methods for inhibition of the JAK pathway” (Rigel Pharmaceuticals, Inc., priority 2006, dated 2016).
